Measurements as given in US20200289474A1, “METHODS OF TREATING PAIN WITH A THIAZOLINE ANTI-HYPERALGESIC” (priority 2019, published 2020).
Entries after “also recorded” stand apart in the source; their conditions may differ.

Tests used:
peroxynitrite (PN) = assay: chemical-based assays of peroxynitrite (PN) oxidation; type: biochemical; conditions: chemical-based assay
[1] = test system: incision-induced hyperalgesia; assay: Brennan protocol, treatment paradigm (established hyperalgesia); type: in vivo, rat
Source text: (§1) Two incisional pain models were used to assess Compound 1 effects on hyperalgesia. The first model is referred to as the Brennan model in which, under anesthesia, a 1 cm longitudinal incision to the skin and underlying fascia of a rat hindpaw is made. The second is a variation but is a more invasive procedure in which the skin and muscle are spread apart using forceps which creates a longer-lasting hypersensitivity.
Using the Brennan protocol and a treatment paradigm in rat, Compound 1 (10 and 30 mg/kg PO), morphine (3 mg/kg SC) or vehicle were administered daily at 24 h post-incision, and again at 48 and 72 h post-incision. Mechanical thresholds were obtained at 1 h and 2 h post-dose in all cohorts on all days.

[2] = test system: incision-induced hyperalgesia; assay: mouse model of severe incision; type: in vivo; conditions: 10 mg/kg IP daily for 15 days; Days 1, 3, 6, 8, 10, 13, 15 and 21
Source text: as §1
In a mouse model of severe incision (tissue and muscle spread with forceps), animals were at baseline for mechanical thresholds prior to incision and then given a daily dose of Compound 1 (10 mg/kg IP) or vehicle for 15 days.

[3] = test system: STZ-induced mechanical allodynia; assay: streptozotocin (STZ)-induced diabetic rats, first experiment; type: in vivo, rat
Protocol: FIG. 14 illustrates non-limiting reversal of mechanical hypersensitivity by Compound 1 in a diabetic neuropathy model, in accordance with various embodiments. Streptozotocin (STZ) destroys insulin-producing cells and generates a diabetic phenotype in […]. Animals were dosed with STZ on day −7. By day 0 animals are hyperglycemic and hyperalgesic (day 0 BL).
(§2) Experiments were conducted to determine the effect of Compound 1 in streptozotocin (STZ)-induced diabetic rats. In the first experiment, after obtaining mechanical threshold baselines, STZ (50 mg/kg IV) was administered (Day −7). Two days later, blood glucose levels were measured and animals that were hyperglycemic (>250 mg/dL) continued in the study. On Day 0 the baseline for mechanical thresholds prior to dosing with test articles was established for the rats. Compound 1 (10, 30, and 100 mg/kg PO), gabapentin (100 mg/kg PO) or vehicle was then administered daily for 5 days. On Day 0 mechanical thresholds were obtained at 1, 3, and 6 h post-dose. On Day 1 mechanical thresholds were measured immediately prior to dosing and then 3 h post-dose. The same regimen was followed on Day 3.

[4] = test system: STZ-induced mechanical allodynia; assay: STZ-induced diabetic rats, subsequent study; type: in vivo, rat
Protocol: as §2
In a subsequent study, the same STZ paradigm was followed. However, in addition to the 100 mg/kg Compound 1 group, two additional cohorts received the Compound 1 100 mg/kg dose split into two or three doses per day with 50 mg/kg BID and 33 mg/kg TID. In addition to the gabapentin (100 mg/kg PO) group, a separate cohort received duloxetine (30 mg/kg PO). Additionally, in this study mechanical threshold testing was implemented every day immediately prior to dosing and 2 h post-dose for 7 days.

OATP1B1 = molecular target: T1, OATP1B1 (Homo sapiens, UniProt Q9Y6L6); assay: transporter inhibition, HEK293 cells, probe accumulation; type: in vitro ADME
T1 construct: expressed in transfected cells; host or cells: HEK293 cells
T1 sequence (Q9Y6L6 1-691): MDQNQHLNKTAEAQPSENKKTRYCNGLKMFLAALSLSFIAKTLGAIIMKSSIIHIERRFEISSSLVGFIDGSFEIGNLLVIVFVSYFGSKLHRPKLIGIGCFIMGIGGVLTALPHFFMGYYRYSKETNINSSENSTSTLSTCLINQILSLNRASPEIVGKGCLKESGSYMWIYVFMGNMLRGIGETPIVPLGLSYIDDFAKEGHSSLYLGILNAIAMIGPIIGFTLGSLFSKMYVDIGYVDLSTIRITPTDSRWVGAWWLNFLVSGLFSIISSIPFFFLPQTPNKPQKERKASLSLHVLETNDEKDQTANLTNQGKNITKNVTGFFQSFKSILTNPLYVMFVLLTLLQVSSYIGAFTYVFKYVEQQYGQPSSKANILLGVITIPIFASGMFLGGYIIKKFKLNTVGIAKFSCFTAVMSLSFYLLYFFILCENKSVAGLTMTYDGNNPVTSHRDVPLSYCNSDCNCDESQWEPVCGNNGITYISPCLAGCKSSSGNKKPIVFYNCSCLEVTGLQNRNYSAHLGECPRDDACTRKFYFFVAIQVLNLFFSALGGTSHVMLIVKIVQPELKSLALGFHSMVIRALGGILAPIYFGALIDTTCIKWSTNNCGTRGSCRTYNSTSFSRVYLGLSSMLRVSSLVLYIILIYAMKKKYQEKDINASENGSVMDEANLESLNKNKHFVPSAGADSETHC

OATP1B3 = molecular target: T2, OATP1B3 (Homo sapiens, UniProt Q9NPD5); assay: as above; type: in vitro ADME
T2 construct: expressed in transfected cells; host or cells: HEK293 cells
T2 sequence (Q9NPD5 1-702): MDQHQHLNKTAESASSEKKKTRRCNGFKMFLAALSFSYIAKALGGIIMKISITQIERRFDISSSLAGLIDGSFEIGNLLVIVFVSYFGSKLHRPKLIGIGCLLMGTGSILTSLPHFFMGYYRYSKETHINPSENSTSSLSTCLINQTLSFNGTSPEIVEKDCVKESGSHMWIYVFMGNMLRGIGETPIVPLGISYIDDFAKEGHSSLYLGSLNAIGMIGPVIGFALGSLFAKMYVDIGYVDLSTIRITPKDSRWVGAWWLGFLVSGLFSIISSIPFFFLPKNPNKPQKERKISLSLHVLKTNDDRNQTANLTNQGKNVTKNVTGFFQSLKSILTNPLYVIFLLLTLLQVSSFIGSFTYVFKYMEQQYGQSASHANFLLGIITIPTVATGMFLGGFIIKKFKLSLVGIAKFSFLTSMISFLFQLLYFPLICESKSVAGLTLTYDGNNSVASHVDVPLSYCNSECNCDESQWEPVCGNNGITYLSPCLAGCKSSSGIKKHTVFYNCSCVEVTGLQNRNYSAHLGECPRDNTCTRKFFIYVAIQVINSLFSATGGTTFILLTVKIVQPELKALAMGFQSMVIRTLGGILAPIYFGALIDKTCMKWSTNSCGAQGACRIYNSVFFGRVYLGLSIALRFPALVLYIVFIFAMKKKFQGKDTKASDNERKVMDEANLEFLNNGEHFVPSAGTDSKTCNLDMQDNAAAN

CC1(C)SC(Nc2ccccc2O)=N[C@@H]1C(=O)O.Cl [Compound 1, (R)-2-(2-hydroxyphenylamino)-5,5-dimethyl-4,5-dihydrothiazole-4-carboxylic acid mono-hydrochloride]
PN-mediated oxidation of small-molecule organic substrates such as luminol (peroxynitrite (PN)): inhibits PN-mediated oxidation | reversal of hyperalgesia ([1]; 10 and 30 mg/kg PO, Day 2, 1 h and 2 h post-dosing): full reversal of hyperalgesia | hyperalgesia ([1]; 10 and 30 mg/kg PO, Day 3 prior to dosing): did not show hyperalgesia | hyperalgesia ([1]; low- and high-dose, Day 3 after dosing): prevented/reversed hyperalgesia completely | reversal of hyperalgesia ([1]; low-dose (10 mg/kg PO), Day 1, 2 h post-dose): partial reversal | hyperalgesia (mechanical thresholds) [2]: protected from hyperalgesia | reversal of allodynia (mechanical thresholds) ([3]; 10, 30, 100 mg/kg PO daily, subsequent days): statistically-significant | reversal of allodynia (mechanical thresholds) ([3]; 10, 30, 100 mg/kg PO, Day 0): non-significant reversal of allodynia | efficacy compared with gabapentin ([3]; repeated dosing, gabapentin 100 mg/kg PO, mono-hydrochloride): comparable to gabapentin | effect on allodynia, STZ diabetic neuropathy model (summary) ([3]; streptozotocin-induced, mono-hydrochloride): alleviates allodynia; also recorded: blocks STZ-induced mechanical allodynia | difference between dosing regimens ([4]; 100 mg/kg QD vs 50 mg/kg BID vs 33 mg/kg TID): no clear difference | reversal of allodynia ([4]; 100 mg/kg QD, 50 mg/kg BID, 33 mg/kg TID PO, 7 days, statistical significance from Day 1): reversed allodynia | inhibition (OATP1B1): does not inhibit | inhibition (OATP1B3): does not inhibit
